# Results from US9550772B2, “Azaindole derivatives as multi kinase inhibitors” (ORIBASE PHARMA, priority 2012, dated 2017).
# Read-outs that look alike come from different tables or passages of the source.
# Assays:
# KDR (VEGFR2) = biological target: T1, KDR (VEGFR2) (Homo sapiens, UniProt P35968); assay: In vitro kinase assay (Z'-LYTE, Invitrogen); assay type: biochemical; conditions: compound at 100 nM, ATP Km apparent, read-out: % of inhibition of the kinase compared to the control
# T1 construct: purchased Invitrogen
# Description: (§1) The inhibitory activity of the compounds on 7 kinases (BRAF, EGFR (ErbB1), EGFR (ErbB1) T790M L858R, FGFR2, KDR (VEGFR2), PDGFRA (PDGFR alpha), SRC) was evaluated by Invitrogen using the Z′-LYTE® technology. Briefly, the Z′-LYTE® biochemical assay employs a fluorescence-based, coupled-enzyme format and is based on the differential sensitivity of phosphorylated and non-phosphorylated peptides to proteolytic cleavage. The peptide substrate is labeled with two fluorophores—one at each end—that make up a FRET pair. A ratiometric method, which calculates the ratio (the Emission Ratio) of donor emission to acceptor emission after excitation of the donor fluorophore at 400 nm, is used to quantitate reaction progress.
# (§2) The compounds are screened in 1% DMSO (final) in the well. For 10 point titrations, 3-fold serial dilutions are conducted from the starting concentration. All Peptide/Kinase Mixtures are diluted to a 2× working concentration in the appropriate Kinase Buffer. All ATP Solutions are diluted to a 4× working concentration in Kinase Buffer (50 mM HEPES pH 7.5, 0.01% BRIJ-35, 10 mM MgCl2, 1 mM EGTA). ATP Km apparent is previously determined using a Z′-LYTE® assay.
# (§3) Each compound was incubated at a concentration of 100 nM and the tables 21 to 27 summarize the results obtained showing the inhibitory power of a compound.
# SRC = biological target: T2, SRC (Homo sapiens, UniProt P12931); assay: In vitro kinase assay (Z'-LYTE, Invitrogen); assay type: biochemical; conditions: compound at 100 nM, ATP Km apparent, read-out: % of inhibition of the kinase compared to the control
# T2 construct: purchased Invitrogen
# Description: as §1, §2, §3
# EGFR (ErbB1) = biological target: T3, EGFR (ErbB1) (Homo sapiens, UniProt P00533); assay: In vitro kinase assay (Z'-LYTE, Invitrogen); assay type: biochemical; conditions: compound at 100 nM, ATP Km apparent, read-out: % of inhibition of the kinase compared to the control
# T3 construct: purchased Invitrogen
# Description: as §1, §2, §3
# BRAF = biological target: T4, BRAF (Homo sapiens, UniProt P15056); assay: In vitro kinase assay (Z'-LYTE, Invitrogen); assay type: biochemical; conditions: compound at 100 nM, ATP Km apparent, read-out: % of inhibition of the kinase compared to the control
# T4 construct: purchased Invitrogen
# Description: as §1, §2, §3
# FGFR2 = biological target: T5, FGFR2 (Homo sapiens, UniProt P21802); assay: In vitro kinase assay (Z'-LYTE, Invitrogen); assay type: biochemical; conditions: compound at 100 nM, ATP Km apparent, read-out: % of inhibition of the kinase compared to the control
# T5 construct: purchased Invitrogen
# Description: as §1, §2, §3
# EGFR (ErbB1) T790M L858R = biological target: T6, EGFR (ErbB1) T790M L858R (Homo sapiens, UniProt P00533, L858R/T790M); assay: In vitro kinase assay (Z'-LYTE, Invitrogen); assay type: biochemical; conditions: compound at 100 nM, ATP Km apparent, read-out: % of inhibition of the kinase compared to the control
# T6 construct: purchased Invitrogen
# Description: as §1, §2, §3
# PDGFRA (PDGFR alpha) = biological target: T7, PDGFRA (PDGFR alpha) (Homo sapiens, UniProt P16234); assay: In vitro kinase assay (Z'-LYTE, Invitrogen); assay type: biochemical; conditions: compound at 100 nM, ATP Km apparent, read-out: % of inhibition of the kinase compared to the control
# T7 construct: purchased Invitrogen
# Description: as §1, §2, §3
# HUVEC cells = assay: In vitro cell proliferation assay (MTT); assay type: cell-based; conditions: Homo sapiens, 72 hr, read-out: EC50, anti-proliferative activity
# Description: (§4) Cancer cell lines (5×10^3 cells per well) or HUVEC (1×10^4 cells per well) or HRMEC (1×10^4 cells per well) were distributed in 96-well plates and incubating in duplicate with escalating concentrations (10 nM to 3 μM) of compounds for 72 hr. Cell proliferation was measured using MTT (3[4,5-dimethylthiazol-2-yl]-2,5-diphenyltetrazolium bromide). The EC50 values were calculated from sigmoidal dose-response curves utilizing Prism 5.0 from Graph-Pad Software (GraphPad Software, La Jolla, Calif., USA), with values normalized to those of DMSO-treated control wells (0%) and 1% SDS control wells (100%).
# HuCCT1 cell line = assay: In vitro cell proliferation assay (MTT); assay type: cell-based; conditions: Homo sapiens, HuCCT-1, HuCCT1, 72 hr, EC50 ≧ 1 μM, read-out: EC50, anti-proliferative activity
# Description: as §4
# HepG2 cell line = assay: In vitro cell proliferation assay (MTT); assay type: cell-based; conditions: Homo sapiens, HepG2, 72 hr, read-out: EC50, anti-proliferative activity
# Description: as §4
# HuH6 Clone 5 cell line = assay: In vitro cell proliferation assay (MTT); assay type: cell-based; conditions: HUH-6-clone5, HuH6 Clone 5, 72 hr, EC50 ≧ 1 μM, read-out: EC50, anti-proliferative activity
# Description: as §4
# HuH7 cell line = assay: In vitro cell proliferation assay (MTT); assay type: cell-based; conditions: Homo sapiens, Huh-7, HuH7, 72 hr, EC50 ≧ 1 μM, read-out: EC50, anti-proliferative activity
# Description: as §4
# HeLa cell line = assay: In vitro cell proliferation assay (MTT); assay type: cell-based; conditions: Homo sapiens, 72 hr, read-out: EC50, anti-proliferative activity
# Description: as §4
# A549 cell line = assay: In vitro cell proliferation assay (MTT); assay type: cell-based; conditions: Homo sapiens, A549, 72 h, read-out: EC50, anti-proliferative activity
# Description: as §4
# MDA-MB-231 cell line = assay: In vitro cell proliferation assay (MTT); assay type: cell-based; conditions: Homo sapiens, MDA-MB-231, 72 hr, read-out: EC50, anti-proliferative activity
# Description: as §4
# T1 sequence (P35968 20-1356): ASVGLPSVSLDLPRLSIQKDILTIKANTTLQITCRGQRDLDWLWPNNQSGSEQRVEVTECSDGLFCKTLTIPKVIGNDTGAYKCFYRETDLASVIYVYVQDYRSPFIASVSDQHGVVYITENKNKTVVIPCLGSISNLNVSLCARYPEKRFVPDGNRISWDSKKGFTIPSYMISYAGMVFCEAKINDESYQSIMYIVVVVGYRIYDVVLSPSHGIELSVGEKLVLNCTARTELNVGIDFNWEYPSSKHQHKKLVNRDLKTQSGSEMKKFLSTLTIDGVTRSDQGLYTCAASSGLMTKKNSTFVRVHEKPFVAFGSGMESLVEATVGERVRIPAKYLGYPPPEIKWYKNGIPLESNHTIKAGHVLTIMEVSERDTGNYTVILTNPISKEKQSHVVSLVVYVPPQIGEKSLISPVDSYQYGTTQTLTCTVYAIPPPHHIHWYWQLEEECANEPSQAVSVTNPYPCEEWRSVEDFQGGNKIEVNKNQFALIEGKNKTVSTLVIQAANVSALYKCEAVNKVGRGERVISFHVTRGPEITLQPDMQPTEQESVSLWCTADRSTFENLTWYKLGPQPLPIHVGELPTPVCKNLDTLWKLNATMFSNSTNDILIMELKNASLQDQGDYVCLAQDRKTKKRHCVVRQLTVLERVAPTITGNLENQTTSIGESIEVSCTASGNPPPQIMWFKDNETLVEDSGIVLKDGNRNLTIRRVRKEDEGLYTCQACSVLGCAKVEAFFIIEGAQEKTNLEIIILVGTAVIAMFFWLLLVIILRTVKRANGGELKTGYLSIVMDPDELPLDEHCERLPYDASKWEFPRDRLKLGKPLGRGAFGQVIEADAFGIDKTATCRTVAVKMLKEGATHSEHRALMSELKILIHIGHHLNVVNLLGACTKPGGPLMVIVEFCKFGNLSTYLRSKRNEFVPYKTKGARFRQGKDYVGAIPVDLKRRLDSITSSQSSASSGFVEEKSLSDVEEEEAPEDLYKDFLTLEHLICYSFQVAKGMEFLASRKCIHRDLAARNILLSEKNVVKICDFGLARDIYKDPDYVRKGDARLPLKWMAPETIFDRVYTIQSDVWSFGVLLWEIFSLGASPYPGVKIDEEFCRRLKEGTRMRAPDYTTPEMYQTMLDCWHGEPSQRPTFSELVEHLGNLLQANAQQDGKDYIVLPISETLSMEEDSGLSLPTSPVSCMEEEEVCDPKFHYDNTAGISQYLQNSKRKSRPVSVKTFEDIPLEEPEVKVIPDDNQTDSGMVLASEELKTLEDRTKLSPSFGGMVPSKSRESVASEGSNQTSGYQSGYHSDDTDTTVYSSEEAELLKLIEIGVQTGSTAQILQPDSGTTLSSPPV
# T2 sequence (P12931 whole entry): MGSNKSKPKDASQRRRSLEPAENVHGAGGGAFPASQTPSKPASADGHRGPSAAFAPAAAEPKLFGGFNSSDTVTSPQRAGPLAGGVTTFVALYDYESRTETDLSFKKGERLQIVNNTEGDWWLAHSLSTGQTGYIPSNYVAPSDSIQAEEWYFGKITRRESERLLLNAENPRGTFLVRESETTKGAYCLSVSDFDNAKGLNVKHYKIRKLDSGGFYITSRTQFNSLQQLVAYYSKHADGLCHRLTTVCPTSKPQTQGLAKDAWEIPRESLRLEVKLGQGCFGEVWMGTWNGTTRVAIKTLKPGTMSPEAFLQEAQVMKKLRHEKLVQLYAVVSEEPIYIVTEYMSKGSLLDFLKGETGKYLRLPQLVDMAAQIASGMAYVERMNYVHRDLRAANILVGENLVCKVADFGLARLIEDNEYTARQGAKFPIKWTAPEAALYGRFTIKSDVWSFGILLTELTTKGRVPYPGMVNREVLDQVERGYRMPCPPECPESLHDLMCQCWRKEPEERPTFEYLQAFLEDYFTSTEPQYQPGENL
# T4 sequence (P15056 whole entry): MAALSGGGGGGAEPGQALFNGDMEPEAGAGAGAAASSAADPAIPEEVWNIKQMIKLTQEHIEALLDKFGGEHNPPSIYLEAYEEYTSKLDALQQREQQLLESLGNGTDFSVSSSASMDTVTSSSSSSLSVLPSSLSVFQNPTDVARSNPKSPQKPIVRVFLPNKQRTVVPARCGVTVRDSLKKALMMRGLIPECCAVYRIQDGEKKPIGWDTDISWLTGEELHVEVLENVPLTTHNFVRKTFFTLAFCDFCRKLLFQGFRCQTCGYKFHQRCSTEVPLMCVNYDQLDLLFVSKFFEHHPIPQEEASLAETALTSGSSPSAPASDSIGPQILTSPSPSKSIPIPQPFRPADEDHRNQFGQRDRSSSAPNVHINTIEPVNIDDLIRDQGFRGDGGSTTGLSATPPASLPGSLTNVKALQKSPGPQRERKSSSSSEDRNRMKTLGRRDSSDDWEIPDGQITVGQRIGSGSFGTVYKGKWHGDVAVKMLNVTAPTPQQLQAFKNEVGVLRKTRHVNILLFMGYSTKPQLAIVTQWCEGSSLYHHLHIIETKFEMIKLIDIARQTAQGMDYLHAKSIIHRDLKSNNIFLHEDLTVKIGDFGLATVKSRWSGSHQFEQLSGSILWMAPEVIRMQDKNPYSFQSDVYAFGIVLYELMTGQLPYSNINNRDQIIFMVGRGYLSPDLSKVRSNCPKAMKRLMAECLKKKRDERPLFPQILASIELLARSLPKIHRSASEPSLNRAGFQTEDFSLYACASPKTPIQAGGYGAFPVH
# T6 sequence (P00533 25-1210 T790M/L858R): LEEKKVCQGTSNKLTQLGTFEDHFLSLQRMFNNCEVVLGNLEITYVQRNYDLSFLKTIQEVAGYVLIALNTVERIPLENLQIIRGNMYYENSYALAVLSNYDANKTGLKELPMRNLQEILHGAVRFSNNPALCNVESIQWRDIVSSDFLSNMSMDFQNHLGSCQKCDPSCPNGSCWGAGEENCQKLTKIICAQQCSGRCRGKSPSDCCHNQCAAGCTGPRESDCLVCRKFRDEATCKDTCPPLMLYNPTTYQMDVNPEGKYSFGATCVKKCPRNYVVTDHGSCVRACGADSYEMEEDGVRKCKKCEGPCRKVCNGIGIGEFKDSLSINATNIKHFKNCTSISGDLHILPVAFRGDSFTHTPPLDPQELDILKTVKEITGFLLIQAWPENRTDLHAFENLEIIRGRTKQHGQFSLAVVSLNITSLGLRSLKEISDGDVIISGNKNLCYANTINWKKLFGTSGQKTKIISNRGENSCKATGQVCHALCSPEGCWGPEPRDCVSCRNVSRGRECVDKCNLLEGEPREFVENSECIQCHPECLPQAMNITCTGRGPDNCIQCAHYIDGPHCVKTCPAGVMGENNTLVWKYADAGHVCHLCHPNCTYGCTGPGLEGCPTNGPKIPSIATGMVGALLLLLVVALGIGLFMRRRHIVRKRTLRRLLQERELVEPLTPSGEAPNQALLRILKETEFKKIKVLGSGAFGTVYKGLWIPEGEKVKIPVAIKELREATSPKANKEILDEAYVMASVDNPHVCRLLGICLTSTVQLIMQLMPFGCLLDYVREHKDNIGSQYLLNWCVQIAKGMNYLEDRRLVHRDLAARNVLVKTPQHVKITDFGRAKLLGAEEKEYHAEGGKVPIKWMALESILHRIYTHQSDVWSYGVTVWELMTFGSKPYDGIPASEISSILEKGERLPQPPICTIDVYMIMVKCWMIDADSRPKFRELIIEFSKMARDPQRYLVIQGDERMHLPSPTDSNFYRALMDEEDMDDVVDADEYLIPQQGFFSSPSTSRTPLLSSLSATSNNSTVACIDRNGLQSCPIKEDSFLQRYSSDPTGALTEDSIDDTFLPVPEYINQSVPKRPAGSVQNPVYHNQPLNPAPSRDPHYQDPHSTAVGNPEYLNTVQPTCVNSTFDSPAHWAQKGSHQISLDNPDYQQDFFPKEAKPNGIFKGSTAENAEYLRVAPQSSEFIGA
# T7 sequence (P16234 24-1089): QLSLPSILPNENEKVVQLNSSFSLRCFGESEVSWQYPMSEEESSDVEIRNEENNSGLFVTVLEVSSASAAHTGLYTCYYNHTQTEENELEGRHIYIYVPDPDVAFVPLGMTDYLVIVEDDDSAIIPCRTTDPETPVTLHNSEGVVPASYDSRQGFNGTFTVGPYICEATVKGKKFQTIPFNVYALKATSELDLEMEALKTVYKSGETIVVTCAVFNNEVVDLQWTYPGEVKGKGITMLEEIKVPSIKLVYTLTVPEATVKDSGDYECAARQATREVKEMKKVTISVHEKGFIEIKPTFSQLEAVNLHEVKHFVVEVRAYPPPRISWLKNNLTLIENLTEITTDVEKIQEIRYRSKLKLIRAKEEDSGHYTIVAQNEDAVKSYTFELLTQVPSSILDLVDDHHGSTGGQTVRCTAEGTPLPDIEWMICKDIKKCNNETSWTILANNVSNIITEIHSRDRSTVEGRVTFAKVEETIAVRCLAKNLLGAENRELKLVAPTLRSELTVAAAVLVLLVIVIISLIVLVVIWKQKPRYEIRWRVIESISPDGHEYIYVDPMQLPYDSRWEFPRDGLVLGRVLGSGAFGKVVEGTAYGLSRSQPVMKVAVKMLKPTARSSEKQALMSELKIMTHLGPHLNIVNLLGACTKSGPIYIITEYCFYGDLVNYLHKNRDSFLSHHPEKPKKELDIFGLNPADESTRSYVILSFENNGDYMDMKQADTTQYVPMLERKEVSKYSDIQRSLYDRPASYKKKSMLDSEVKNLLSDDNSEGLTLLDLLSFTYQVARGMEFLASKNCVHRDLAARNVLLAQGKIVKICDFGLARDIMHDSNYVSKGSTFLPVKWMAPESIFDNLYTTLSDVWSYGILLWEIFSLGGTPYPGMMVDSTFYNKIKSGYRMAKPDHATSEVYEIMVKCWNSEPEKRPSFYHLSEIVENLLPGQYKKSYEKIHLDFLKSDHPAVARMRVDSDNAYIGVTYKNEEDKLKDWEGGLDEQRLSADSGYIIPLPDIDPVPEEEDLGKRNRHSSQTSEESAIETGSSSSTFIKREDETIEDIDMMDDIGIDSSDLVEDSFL
inhibition at 0.1 µM (KDR (VEGFR2)) [%],inhibition at 0.1 µM (SRC) [%],inhibition at 0.1 µM (EGFR (ErbB1)) [%],inhibition at 0.1 µM (BRAF) [%],inhibition at 0.1 µM (FGFR2) [%],inhibition at 0.1 µM (EGFR (ErbB1) T790M L858R) [%],inhibition at 0.1 µM (PDGFRA (PDGFR alpha)) [%],EC50 (HepG2 cell line; EC50 ≧ 1 μM) [µM],Compound,EC50 (HUVEC cells; EC50 ≧ 1 μM) [µM],further results
< 50,< 50,< 50,< 50,< 50,< 50,< 50,,"COC(=O)c1cc2cc(CNC(=O)c3cc(NC(=O)c4ccc(CN5CCC(N(C)C)C5)c(C(F)(F)F)c4)ccc3C)cnc2[nH]1 (stereo not drawn) [OR0726, 5-({5-[4-(3-Dimethylamino-pyrrolidin-1-ylmethyl)-3-trifluoromethyl-benzoylamino]-2-methyl-benzoylamino}-methyl)-1H-pyrrolo[2,3-b]pyridine-2-carboxylic acid methyl ester]",,
< 50,< 50,< 50,< 50,< 50,< 50,≥ 50,,"COC(=O)c1cc2cc(CNC(=O)c3cc(NC(=O)c4ccc(CN5CCN(C)CC5)c(C(F)(F)F)c4)ccc3C)cnc2[nH]1 [OR0728, 5-({2-Methyl-5-[4-(4-methyl-piperazin-1-ylmethyl)-3-trifluoromethyl-benzoylamino]-benzoylamino}-methyl)-1H-pyrrolo[2,3-b]pyridine-2-carboxylic acid methyl ester]",,
,,,,,,,1 to 3,"CNC(=O)c1cc(Oc2ccc(NC(=O)Nc3ccc(Cl)c(C(F)(F)F)c3)cc2)ccn1 [Sorafenib, reference compound]",,EC50 (HUVEC cells; 100 nM < EC50 < 1 μM): 0.1 to 1 µM; EC50 (HuCCT1 cell line): 1 to 3 µM; EC50 (HuH6 Clone 5 cell line): 1 to 3 µM; EC50 (HuH7 cell line): 1 to 3 µM
< 50,< 50,≥ 50,< 50,< 50,≥ 50,< 50,,"CC(=O)c1cc2cc(C(=O)Nc3cc(NC(=O)c4ccc(CN5CCN(C)CC5)c(C(F)(F)F)c4)ccc3C)cnc2[nH]1 [OR0724, 2-Acetyl-1H-pyrrolo[2,3-b]pyridine-5-carboxylic acid {2-methyl-5-[4-(4-methyl-piperazin-1-ylmethyl)-3-trifluoromethyl-benzoylamino]-phenyl}-amide]",,
≥ 50,≥ 50,≥ 50,< 50,≥ 50,,≥ 50,≥ 1,"COC(=O)c1cc2cc(CCc3ccc(C)c(NC(=O)c4cc(-n5cnc(C)c5)cc(C(F)(F)F)c4)c3)cnc2[nH]1 [OR1068, 5-(2-{4-Methyl-3-[3-(4-methyl-imidazol-1-yl)-5-trifluoromethyl-benzoylamino]-phenyl}-ethyl)-1H-pyrrolo[2,3-b]pyridine-2-carboxylic acid methyl ester]",,EC50 (HUVEC cells; 100 nM < EC50 < 1 μM): 0.1 to 1 µM; EC50 (HeLa cell line; EC50 ≧ 1 μM): ≥ 1 µM; EC50 (A549 cell line; EC50 ≧ 1 μM): ≥ 1 µM; EC50 (MDA-MB-231 cell line; EC50 ≧ 1 μM): ≥ 1 µM
≥ 50,≥ 50,≥ 50,≥ 50,≥ 50,,≥ 50,,"CC(=O)c1cc2cc(CCc3cc(NC(=O)c4cc(N5CCN(C)CC5)cc(C(F)(F)F)c4)ccc3C)cnc2[nH]1 [OR1059, N-{3-[2-(2-Acetyl-1H-pyrrolo[2,3-b]pyridin-5-yl)-ethyl]-4-methyl-phenyl}-3-(4-methyl-piperazin-1-yl)-5-trifluoromethyl-benzamide]",≥ 1,EC50 (HeLa cell line; 100 nM < EC50 < 1 μM): 0.1 to 1 µM; EC50 (A549 cell line; 100 nM < EC50 < 1 μM): 0.1 to 1 µM; EC50 (HepG2 cell line; 100 nM < EC50 < 1 μM): 0.1 to 1 µM; EC50 (MDA-MB-231 cell line; 100 nM < EC50 < 1 μM): 0.1 to 1 µM
< 50,< 50,< 50,< 50,< 50,,≥ 50,,"CC(=O)c1cc2cc(CCc3cc(NC(=O)Nc4cccc(C(F)(F)F)c4)ccc3C)cnc2[nH]1 [OR0919, 1-{3-[2-(2-Acetyl-1H-pyrrolo[2,3-b]pyridin-5-yl)-ethyl]-4-methyl-phenyl}-3-(3-trifluoromethyl-phenyl)-urea]",≥ 1,EC50 (HeLa cell line; EC50 ≧ 1 μM): ≥ 1 µM; EC50 (A549 cell line; EC50 ≧ 1 μM): ≥ 1 µM; EC50 (HepG2 cell line; EC50 ≦ 100 nM): ≤ 0.1 µM; EC50 (MDA-MB-231 cell line; 100 nM < EC50 < 1 μM): 0.1 to 1 µM
,,,,,,,≥ 1,"Cc1nc(Nc2ncc(C(=O)Nc3c(C)cccc3Cl)s2)cc(N2CCN(CCO)CC2)n1 [Dasatinib, reference compound]",≥ 1,EC50 (HuCCT1 cell line): ≥ 1 µM
≥ 50,< 50,< 50,< 50,< 50,,≥ 50,≥ 1,"COC(=O)c1cc2cc(CSc3cccc(NC(=O)c4cccc(C(F)(F)F)c4)c3)cnc2[nH]1 [OR1066, 5-[3-(3-Trifluoromethyl-benzoylamino)-phenylsulfanylmethyl]-1H-pyrrolo[2,3-b]pyridine-2-carboxylic acid methyl ester]",≥ 1,EC50 (HeLa cell line; EC50 ≧ 1 μM): ≥ 1 µM; EC50 (A549 cell line; EC50 ≧ 1 μM): ≥ 1 µM; EC50 (MDA-MB-231 cell line; EC50 ≧ 1 μM): ≥ 1 µM
< 50,< 50,< 50,< 50,< 50,< 50,< 50,,"COC(=O)c1cc2cc(CNC(=O)c3cc(NC(=O)c4ccc(CN5CCN(C)CC5)cc4)ccc3C)cnc2[nH]1 [OR0730, 5-({2-Methyl-5-[4-(4-methyl-piperazin-1-ylmethyl)-benzoylamino]-benzoylamino}-methyl)-1H-pyrrolo[2,3-b]pyridine-2-carboxylic acid methyl ester]",,
< 50,< 50,≥ 50,< 50,< 50,< 50,< 50,,"CC(=O)c1cc2cc(C(=O)Nc3cc(NC(=O)c4cc(-n5cnc(C)c5)cc(C(F)(F)F)c4)ccc3C)cnc2[nH]1 [OR0723, 2-Acetyl-1H-pyrrolo[2,3-b]pyridine-5-carboxylic acid {2-methyl-5-[3-(4-methyl-imidazol-1-yl)-5-trifluoromethyl-benzoylamino]-phenyl}-amide]",,
≥ 50,≥ 50,≥ 50,< 50,< 50,,≥ 50,≥ 1,"COC(=O)c1cc2cc(CCc3cc(NC(=O)c4ccc(CN5CCN(C)CC5)cc4)ccc3C)cnc2[nH]1 [OR0834, 5-(2-{2-Methyl-5-[4-(4-methyl-piperazin-1-ylmethyl)-benzoylamino]-phenyl}-ethyl)-1H-pyrrolo[2,3-b]pyridine-2-carboxylic acid methyl ester]",≥ 1,EC50 (HuH7 cell line): ≥ 1 µM
